# Experimental data: article PMC11274128, “Modification and Synergistic Studies of a Novel Frog Antimicrobial Peptide against Pseudomonas aeruginosa Biofilms” (Antibiotics, 2024)
# Read-outs that look alike come from different tables or passages of the source. Bridge positions count the residues as written; N and C are the ends. Peptide text beside a SMILES is read from it.
# Key:
# [1] = test system: A. baumannii (BAA 747); assay: microbe, parasite or virus in culture; format: cell-based, Acinetobacter baumannii
# Description: (§1) The minimum inhibitory concentration (MIC) is the minimum concentration of an antimicrobial agent that prevents the visible growth of a bacterium or bacteria. The MIC is an important piece of data for research on new antimicrobial agents and helps in the effective selection of antibiotics to improve the success of treatment. The minimum bactericidal concentration (MBC) is defined as the lowest antibiotic concentration that kills 99.9% of the inoculum. This study mainly contained eight different microorganisms, which were Staphylococcus aureus (ATCC 6538), methicillin-resistant Staphylococcus aureus (NCTC 12493), Enterococcus faecalis (NCTC 12697), Escherichia coli (ATCC 8739), Klebsiella pneumoniae (ATCC 43816), Pseudomonas aeruginosa (ATCC CRM 9027), Acinetobacter baumannii (BAA 747), and Candida albicans (ATCC 10231). The bacteria were incubated in the compatible medium at 37 °C overnight.
# [2] = test system: K. pneumoniae (ATCC 43816); assay: microbe, parasite or virus in culture; format: cell-based, Klebsiella pneumoniae
# Description: as §1
# [3] = test system: MRSA (NCTC 12493); assay: microbe, parasite or virus in culture; format: cell-based, methicillin-resistant Staphylococcus aureus
# Description: as §1
# [4] = test system: C. albicans (ATCC 10231); format: cell-based, Candida albicans; conditions: yeast C. albicans ATCC 10231
# Description: as §1
# [5] = test system: E. coli (ATCC 8739); assay: microbe, parasite or virus in culture; format: cell-based, Escherichia coli
# Description: as §1
# [6] = test system: G+ Bacteria; assay: Geometric mean of MICs and TI value; format: cell-based; conditions: geometric mean of MICs against tested Gram-positive bacteria
# Experimental: (§2) The therapeutic potential of antimicrobial agents was valued based on their selectivity toward bacteria in reference to erythrocytes. The TI value was calculated from the results of antibacterial and haemolysis experiments of peptides using the following formula:TI value = HC10 / GMMICs.
# (§3) GM was the geometric mean of MICs against all tested bacteria.
# [7] = test system: G− Bacteria; assay: Geometric mean of MICs and TI value; format: cell-based; conditions: geometric mean of MICs against tested Gram-negative bacteria
# Experimental: as §2, §3
# [8] = test system: S. aureus (ATCC 6538); assay: microbe, parasite or virus in culture; format: cell-based, Staphylococcus aureus
# Description: as §1
# [9] = test system: P. aeruginosa (ATCC CRM 9027); assay: microbe, parasite or virus in culture; format: cell-based, Pseudomonas aeruginosa
# Description: as §1
# [10] = test system: Yeast; assay: Geometric mean of MICs and TI value; format: cell-based, Candida albicans; conditions: C. albicans ATCC 10231
# Experimental: as §2, §3
# [11] = test system: horse red blood cells; conditions: horse red blood cells in PBS, 37 °C, 2 h, absorbance 570 nm; positive control 0.1% Triton
# Experimental: The pure peptide was dissolved in PBS and then two-fold diluted to obtain a series of concentrations: 512, 256, 128, 64, 32, 16, 8, 4, and 2 μM. A positive control (0.1% Triton) and blank control (PBS) were used. Two millilitres of fresh horse red blood cells were washed in PBS until the supernatant became colourless and clear, and the mixture was then thoroughly mixed. Each mixture contained 100 μL of peptide solution or controls and 100 μL of horse red blood cells, which were then incubated at 37 °C for 2 h and centrifuged at 930× g for 10 min. Subsequently, 100 μL of supernatant from each tube was transferred into a 96-well plate, and the plate reader measured the absorbance at a wavelength of 570 nm. The haemolysis rate was calculated using the following formula:Percentage Haemolysis= (ASample − ABlank)/(APositive − ABlank) × 100%
# [12] = test system: E. faecalis (NCTC 12697); assay: microbe, parasite or virus in culture; format: cell-based, Enterococcus faecalis; conditions: Enterococcus faecalis, NCTC12697
# Description: as §1
# [13] = Acinetobacter baumannii, BAA747
# [14] = Klebsiella pneumoniae, ATCC43816
# [15] = Staphylococcus aureus, ATCC6538
smiles,measurement,setting,value
CC[C@H](C)[C@H](NC(=O)[C@H](CCCCN)NC(=O)[C@H](CCCCN)NC(=O)CNC(=O)[C@H](C)NC(=O)[C@H](C)NC(=O)[C@H](CC(C)C)NC(=O)[C@@H](NC(=O)[C@H](C)NC(=O)[C@H](CCCNC(=N)N)NC(=O)[C@H](CC(C)C)NC(=O)[C@H](CC(C)C)NC(=O)CN)C(C)C)C(=O)N[C@H](C(=O)N[C@H]1CSSC[C@@H](C(=O)O)NC(=O)[C@H](CCCNC(=N)N)NC(=O)CNC(=O)[C@H](CO)NC(=O)[C@H](CC(C)C)NC(=O)CNC1=O)C(C)C [Peptide 2085-R] (H-GLLRAVLAAGKKIVCGLSGRC-OH; disulfide 15-21),MIC,"[1]; planktonic A. baumannii BAA 747, 37 °C, nine repeats of three independent experiments, read-out: MIC",32 µM
same,MBC,"[1]; planktonic A. baumannii BAA 747, lowest concentration killing 99.9% of inoculum, read-out: MBC",64 µM
same,MIC,"[2]; planktonic K. pneumoniae ATCC 43816, 37 °C, nine repeats of three independent experiments, read-out: MIC",32 µM
same,MBC,"[2]; planktonic K. pneumoniae ATCC 43816, lowest concentration killing 99.9% of inoculum, read-out: MBC",64 µM
same,MIC,"[3]; planktonic MRSA NCTC 12493, 37 °C, nine repeats of three independent experiments, read-out: MIC",16 µM
same,MBC,"[3]; planktonic MRSA NCTC 12493, lowest concentration killing 99.9% of inoculum, read-out: MBC",32 µM
same,MIC,"[4]; 37 °C, nine repeats of three independent experiments",32 µM
same,MBC,[4]; lowest concentration killing 99.9% of inoculum,32 µM
same,MIC,"[5]; planktonic E. coli ATCC 8739, 37 °C, nine repeats of three independent experiments",16 µM
same,MBC,"[5]; planktonic E. coli ATCC 8739, lowest concentration killing 99.9% of inoculum",16 µM
same,"GM (geometric mean of MICs), G+ Bacteria",[6],25.40 µM
same,"GM (geometric mean of MICs), G− Bacteria",[7],32.00 µM
same,MIC,"[8]; planktonic S. aureus ATCC 6538, 37 °C, nine repeats of three independent experiments",16 µM
same,MBC,"[8]; planktonic S. aureus ATCC 6538, lowest concentration killing 99.9% of inoculum",16 µM
same,MIC,"[9]; planktonic P. aeruginosa ATCC CRM 9027, 37 °C, nine repeats of three independent experiments",64 µM
same,MBC,"[9]; planktonic P. aeruginosa ATCC CRM 9027, lowest concentration killing 99.9% of inoculum",64 µM
same,"GM (geometric mean of MICs), Yeast",[10],32.00 µM
same,HC10,[11],>256 µM
"CN[C@H](CC(C)C)C(=O)N[C@H]1C(=O)N[C@@H](CC(N)=O)C(=O)N[C@H]2C(=O)N[C@H]3C(=O)N[C@H](C(=O)N[C@H](C(=O)O)c4cc(O)cc(O)c4-c4cc3ccc4O)[C@H](O)c3ccc(c(Cl)c3)Oc3cc2cc(c3O[C@@H]2O[C@H](CO)[C@@H](O)[C@H](O)[C@H]2O[C@H]2C[C@](C)(N)[C@H](O)[C@H](C)O2)Oc2ccc(cc2Cl)[C@H]1O [Vancomycin, reference compound]",MBC,[1]; [13],> 128 µM
same,MIC,[1]; [13],> 128 µM
same,MBC,[2]; [14],> 128 µM
same,MIC,[2]; [14],> 128 µM
same,MBC,[3]; Staphylococcus aureus,8 µM
same,MIC,[3]; Staphylococcus aureus,4 µM
same,MBC,[12],> 128 µM
same,MIC,[12],32 µM
same,MBC,"[5]; Escherichia coli, ATCC8739",> 128 µM
same,MIC,"[5]; Escherichia coli, ATCC8739",32 µM
same,MBC,[8]; [15],64 µM
same,MIC,[8]; [15],8 µM
same,MBC,[9]; Pseudomonas aeruginosa,> 128 µM
same,MIC,[9]; Pseudomonas aeruginosa,> 128 µM
